# Measurements: patent US20230322767A1, “ARYL SUBSTITUTED PYRROLO-PYRIDINONES AND THERAPEUTIC USES THEREOF” (Bayer Aktiengesellschaft, priority 2020, published 2023)
# pIC50: −log10 of the molar value. Where two headings read alike, the source gives them in different places.
# Columns and labels:
# Assay type in all cases: biochemical
# CSNK1A1 = CSNK1A1 (Homo sapiens (Human), UniProt P48729); test: CSNK1A1 Assay 2 (ADP-Glo, 1 μM ATP); conditions: median, read-out: CSNK1A1 Assay 2 IC50 [mol/l] (median)
# CSNK1A1, sequence (P48729 whole entry): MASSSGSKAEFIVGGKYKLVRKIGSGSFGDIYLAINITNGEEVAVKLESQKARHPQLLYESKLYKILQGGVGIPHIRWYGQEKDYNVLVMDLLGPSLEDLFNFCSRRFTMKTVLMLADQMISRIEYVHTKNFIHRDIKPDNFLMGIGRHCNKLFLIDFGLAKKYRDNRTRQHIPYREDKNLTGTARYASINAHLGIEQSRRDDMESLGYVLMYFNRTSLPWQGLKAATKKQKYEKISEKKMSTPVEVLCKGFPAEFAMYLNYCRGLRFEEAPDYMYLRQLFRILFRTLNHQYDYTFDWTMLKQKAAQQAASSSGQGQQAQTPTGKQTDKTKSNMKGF
# Outline: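 ADP-Glo luminescence, taken as ADP formed, reports activity against biotinylated phospho-peptide substrate biotin-Ahx-KRRRAL-pS-VASLPGL at 1 μM ATP.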
# [1] = molecular target: wild-type Epidermal Growth Factor Receptor (EGFR) (Homo sapiens (Human), UniProt P00533); test: WT-EGFR Kinase Assay (TR-FRET, 2 mM ATP)
# wild-type Epidermal Growth Factor Receptor (EGFR), sequence (P00533 669-1210): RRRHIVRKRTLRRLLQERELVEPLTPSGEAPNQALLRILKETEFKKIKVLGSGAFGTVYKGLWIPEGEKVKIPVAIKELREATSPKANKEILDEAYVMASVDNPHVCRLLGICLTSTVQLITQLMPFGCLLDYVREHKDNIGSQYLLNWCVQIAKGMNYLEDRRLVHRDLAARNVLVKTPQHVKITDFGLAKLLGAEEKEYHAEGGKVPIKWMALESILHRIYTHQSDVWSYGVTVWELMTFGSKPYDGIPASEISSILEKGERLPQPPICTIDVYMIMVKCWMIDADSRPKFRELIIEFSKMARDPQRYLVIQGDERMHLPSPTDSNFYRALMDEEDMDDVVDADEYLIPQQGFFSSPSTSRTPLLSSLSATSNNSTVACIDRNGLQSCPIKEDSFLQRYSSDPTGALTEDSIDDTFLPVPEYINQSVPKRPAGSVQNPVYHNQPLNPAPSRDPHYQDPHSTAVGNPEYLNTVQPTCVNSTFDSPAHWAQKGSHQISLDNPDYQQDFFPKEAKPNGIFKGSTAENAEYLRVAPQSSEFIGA
# Outline: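 TR-FRET read-out of biotinylated peptide phosphorylation, taken as the 665/622 nm ratio after EDTA stop and 1 h detection at 22° C. Kinase: GST fusion of human EGFR aa R669–A1210, given a 15 min compound pre-binding step; reaction run at 2 mM ATP.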
# CSNK1D = CSNK1D (Homo sapiens (Human), UniProt P48730); test: CSNK1D Assay (ADP-Glo, 1 μM ATP); conditions: median, read-out: CSNK1D IC50 [mol/l] (median)
# CSNK1D, sequence (P48730 whole entry): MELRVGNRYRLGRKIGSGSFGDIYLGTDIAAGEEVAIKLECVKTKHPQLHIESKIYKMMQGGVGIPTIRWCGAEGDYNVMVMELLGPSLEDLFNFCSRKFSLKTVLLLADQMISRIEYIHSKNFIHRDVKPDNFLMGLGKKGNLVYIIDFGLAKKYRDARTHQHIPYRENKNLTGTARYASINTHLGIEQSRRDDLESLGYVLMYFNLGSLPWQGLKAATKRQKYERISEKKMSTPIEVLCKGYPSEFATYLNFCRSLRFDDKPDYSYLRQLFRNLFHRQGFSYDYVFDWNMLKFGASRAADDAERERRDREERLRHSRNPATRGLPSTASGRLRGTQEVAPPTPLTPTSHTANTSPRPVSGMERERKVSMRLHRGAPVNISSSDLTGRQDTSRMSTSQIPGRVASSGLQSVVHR
# Outline: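 Enzyme preincubated with compound 15 min at 22° C in 50 mM HEPES pH 7.5 buffer with 10 mM MgCl2, 1 mM DTT; kinase reaction run at 1 μM ATP with biotinylated peptide substrate. ADP formed was detected by ADP-Glo luminescence as the measure of activity.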
# [2] = EGFR Wildtyp 2 mM ATP IC50 [mol/l] (median), median or individual measurements
# [3] = read-out: EGFR Wildtyp 2 mM ATP IC50 [mol/l] (median), median or individual measurements
SMILES,pIC50 (CSNK1A1),"pIC50 [1, 2]",pIC50 (CSNK1D),"pIC50 [1, 3]"
"CC(C(=O)Nc1cc(-c2[nH]c3ccn(C)c(=O)c3c2-c2cccnc2F)ccn1)c1ccc(F)cc1 (racemic) [Example 110, 2-(4-fluorophenyl)-N-{4-[3-(2-fluoropyridin-3-yl)-5-methyl-4-oxo-4,5-dihydro-1H-pyrrolo[3,2-c]pyridin-2-yl]pyridin-2-yl}propanamide]",7.52,< 4.70,7.68,–
"Cc1ccccc1-c1c(-c2ccnc(NC(=O)C(C)c3ccc(F)cc3)c2)[nH]c2ccn(C)c(=O)c12 (racemic) [Example 111, 2-(4-fluorophenyl)-N-{4-[5-methyl-3-(2-methylphenyl)-4-oxo-4,5-dihydro-1H-pyrrolo[3,2-c]pyridin-2-yl]pyridin-2-yl}propanamide]",7.43,< 4.70,7.66,–
"CC(C(=O)Nc1cc(-c2[nH]c3ccn(C)c(=O)c3c2-c2ccccc2Cl)ccn1)c1ccc(F)cc1 (racemic) [Example 112, N-{4-[3-(2-chlorophenyl)-5-methyl-4-oxo-4,5-dihydro-1H-pyrrolo[3,2-c]pyridin-2-yl]pyridin-2-yl}-2-(4-fluorophenyl)propanamide]",7.64,< 4.70,7.85,–
"CC(C(=O)Nc1cc(-c2[nH]c3ccn(C)c(=O)c3c2-c2cccc(O)c2)ccn1)c1ccc(F)cc1 (racemic) [Example 113, 2-(4-fluorophenyl)-N-{4-[3-(3-hydroxyphenyl)-5-methyl-4-oxo-4,5-dihydro-1H-pyrrolo[3,2-c]pyridin-2-yl]pyridin-2-yl}propanamide]",7.49,< 4.70,7.48,–
"CC(C(=O)Nc1cc(-c2[nH]c3ccn(C)c(=O)c3c2-c2ccc(F)c(F)c2)ccn1)c1ccc(F)cc1 (racemic) [Example 114, N-{4-[3-(3,4-difluorophenyl)-5-methyl-4-oxo-4,5-dihydro-1H-pyrrolo[3,2-c]pyridin-2-yl]pyridin-2-yl}-2-(4-fluorophenyl)propanamide]",8.32,< 4.70,8.17,–
"CC(C(=O)Nc1cc(-c2[nH]c3ccn(C)c(=O)c3c2-c2ccoc2)ccn1)c1ccc(F)cc1 (racemic) [Example 115, 2-(4-fluorophenyl)-N-{4-[3-(3-furyl)-5-methyl-4-oxo-4,5-dihydro-1H-pyrrolo[3,2-c]pyridin-2-yl]pyridin-2-yl}propanamide]",8.66,< 4.70,8.25,–
"CC(C(=O)Nc1cc(-c2[nH]c3ccn(C)c(=O)c3c2-c2ccco2)ccn1)c1ccc(F)cc1 (racemic) [Example 116, 2-(4-fluorophenyl)-N-{4-[3-(2-furyl)-5-methyl-4-oxo-4,5-dihydro-1H-pyrrolo[3,2-c]pyridin-2-yl]pyridin-2-yl}propanamide]",8.48,< 5.24,8.11,< 5.24
"CC(C(=O)Nc1cc(-c2[nH]c3ccn(C)c(=O)c3c2-c2cc(F)c(F)c(F)c2)ccn1)c1ccc(F)cc1 (racemic) [Example 117, 2-(4-fluorophenyl)-N-{4-[5-methyl-4-oxo-3-(3,4,5-trifluorophenyl)-4,5-dihydro-1H-pyrrolo[3,2-c]pyridin-2-yl]pyridin-2-yl}propanamide]",8.33,< 4.70,8.13,–
"Cn1ccc2[nH]c(-c3ccnc(NC(=O)C(CC(F)F)c4ccc(F)cc4)c3)c(-c3cccnc3)c2c1=O (racemic) [Example 118, 4,4-difluoro-2-(4-fluorophenyl)-N-{4-[5-methyl-4-oxo-3-(pyridin-3-yl)-4,5-dihydro-1H-pyrrolo[3,2-c]pyridin-2-yl]pyridin-2-yl}butanamide]",8.07,< 4.70,7.92,–
"CC(C(=O)Nc1cc(-c2[nH]c3ccn(C)c(=O)c3c2-c2ccc(O)cc2)ccn1)c1ccc(F)cc1 (racemic) [Example 119, 2-(4-fluorophenyl)-N-{4-[3-(4-hydroxyphenyl)-5-methyl-4-oxo-4,5-dihydro-1H-pyrrolo[3,2-c]pyridin-2-yl]pyridin-2-yl}propanamide]",7.82,< 4.70,7.96,–
"CC(C(=O)Nc1cc(-c2[nH]c3ccn(C)c(=O)c3c2-c2cc(F)ccc2F)ccn1)c1ccc(F)cc1 (racemic) [Example 120, N-{4-[3-(2,5-difluorophenyl)-5-methyl-4-oxo-4,5-dihydro-1H-pyrrolo[3,2-c]pyridin-2-yl]pyridin-2-yl}-2-(4-fluorophenyl)propanamide]",8.19,< 4.70,8.09,–
"CC(C(=O)Nc1cc(-c2[nH]c3ccn(C)c(=O)c3c2-c2cc(F)cc(F)c2)ccn1)c1ccc(F)cc1 (racemic) [Example 121, N-{4-[3-(3,5-difluorophenyl)-5-methyl-4-oxo-4,5-dihydro-1H-pyrrolo[3,2-c]pyridin-2-yl]pyridin-2-yl}-2-(4-fluorophenyl)propanamide]",8.15,< 5.24,7.89,< 5.24
"CC(C(=O)Nc1cc(-c2[nH]c3ccn(C)c(=O)c3c2-c2ccc(Cl)s2)ccn1)c1ccc(F)cc1 (racemic) [Example 122, N-{4-[3-(5-chloro-2-thienyl)-5-methyl-4-oxo-4,5-dihydro-1H-pyrrolo[3,2-c]pyridin-2-yl]pyridin-2-yl}-2-(4-fluorophenyl)propanamide]",8.44,< 5.24,8.05,< 5.24
"CC(C(=O)Nc1cc(-c2[nH]c3ccn(C)c(=O)c3c2-c2ccccc2C#N)ccn1)c1ccc(F)cc1 (racemic) [Example 123, N-{4-[3-(2-cyanophenyl)-5-methyl-4-oxo-4,5-dihydro-1H-pyrrolo[3,2-c]pyridin-2-yl]pyridin-2-yl}-2-(4-fluorophenyl)propanamide]",7.60,< 4.70,7.66,–
"CC(C(=O)Nc1cc(-c2[nH]c3ccn(C)c(=O)c3c2-c2ccccc2O)ccn1)c1ccc(F)cc1 (racemic) [Example 124, 2-(4-fluorophenyl)-N-{4-[3-(2-hydroxyphenyl)-5-methyl-4-oxo-4,5-dihydro-1H-pyrrolo[3,2-c]pyridin-2-yl]pyridin-2-yl}propanamide]",8.25,< 4.70,7.96,–
"Cc1ccc(-c2c(-c3ccnc(NC(=O)C(C)c4ccc(F)cc4)c3)[nH]c3ccn(C)c(=O)c23)s1 (racemic) [Example 125, 2-(4-fluorophenyl)-N-{4-[5-methyl-3-(5-methyl-2-thienyl)-4-oxo-4,5-dihydro-1H-pyrrolo[3,2-c]pyridin-2-yl]pyridin-2-yl}propanamide]",8.48,< 5.79,8.23,< 5.79
"CC(C(=O)Nc1cc(-c2[nH]c3ccn(C)c(=O)c3c2-c2ccnc(N)c2)ccn1)c1ccc(F)cc1 (racemic) [Example 126, N-{4-[3-(2-aminopyridin-4-yl)-5-methyl-4-oxo-4,5-dihydro-1H-pyrrolo[3,2-c]pyridin-2-yl]pyridin-2-yl}-2-(4-fluorophenyl)propanamide]",7.26,< 4.70,7.20,–
"CC(C(=O)Nc1cc(-c2[nH]c3ccn(C)c(=O)c3c2-c2cc(F)ccc2C#N)ccn1)c1ccc(F)cc1 (racemic) [Example 127, N-{4-[3-(2-cyano-5-fluorophenyl)-5-methyl-4-oxo-4,5-dihydro-1H-pyrrolo[3,2-c]pyridin-2-yl]pyridin-2-yl}-2-(4-fluorophenyl)propanamide]",7.48,< 4.70,7.48,–
"CN1CCc2[nH]c(-c3ccnc(NC(=O)C(CC(F)F)c4ccc(F)cc4)c3)c(-c3cc(F)ccc3C#N)c2C1=O (racemic) [Example 128, N-{4-[3-(2-cyano-5-fluorophenyl)-5-methyl-4-oxo-4,5,6,7-tetrahydro-1H-pyrrolo[3,2-c]pyridin-2-yl]pyridin-2-yl}-4,4-difluoro-2-(4-fluorophenyl)butanamide]",7.85,< 4.70,7.92,–
"Cc1ncc(-c2c(-c3ccnc(NC(=O)C(CC(F)F)c4ccc(F)cc4)c3)[nH]c3c2C(=O)N(C)CC3)s1 (racemic) [Example 129, 4,4-difluoro-2-(4-fluorophenyl)-N-{4-[5-methyl-3-(2-methyl-1,3-thiazol-5-yl)-4-oxo-4,5,6,7-tetrahydro-1H-pyrrolo[3,2-c]pyridin-2-yl]pyridin-2-yl}butanamide]",7.82,< 4.70,7.89,–
"CC(C(=O)Nc1cc(-c2[nH]c3ccn(C)c(=O)c3c2-c2cccs2)ccn1)c1ccc(F)cc1 (racemic) [Example 130, 2-(4-fluorophenyl)-N-{4-[5-methyl-4-oxo-3-(2-thienyl)-4,5-dihydro-1H-pyrrolo[3,2-c]pyridin-2-yl]pyridin-2-yl}propanamide]",8.62,< 4.70,8.41,–
"CC(C(=O)Nc1cc(-c2[nH]c3ccn(C)c(=O)c3c2-c2ccsc2)ccn1)c1ccc(F)cc1 (racemic) [Example 131, 2-(4-fluorophenyl)-N-{4-[5-methyl-4-oxo-3-(3-thienyl)-4,5-dihydro-1H-pyrrolo[3,2-c]pyridin-2-yl]pyridin-2-yl}propanamide]",8.15,< 4.70,8.00,–
